Data taken from ChEMBL document CHEMBL4393717, “Development of novel human lactate dehydrogenase A inhibitors: High-throughput screening, synthesis, and biological evaluations” (Eur J Med Chem, 2019).
Activity calls are given as the source filed them. The rule behind the calls is not given here.

Key:
[1] = target: T1, L-lactate dehydrogenase A chain (Homo sapiens, UniProt P00338); assay: Inhibition of recombinant human full-length N-terminal His-tagged LDHA (1 to 332 residues) expressed in Escherichia coli using sodium pyruvate as substrate incubated for 10 mins
[2] = tested on: MIA PaCa-2; assay: Antiproliferative activity against human MIAPaCa2 cells assessed as reduction in cell viability at 50 uM incubated for 72 hrs by MTT assay relative to control; type: functional; conditions: for inhibition at 50 µM: MIA PaCa-2, 72 h
[3] = tested on: A549; assay: Antiproliferative activity against human A549 cells assessed as reduction in cell viability at 50 uM incubated for 72 hrs by MTT assay relative to control; type: functional; conditions: for inhibition at 50 µM: A549, 72 h
[4] = tested on: MIA PaCa-2; assay: Antiproliferative activity against human MIAPaCa2 cells assessed as reduction in cell viability incubated for 72 hrs by MTT assay; type: functional, cell-based; conditions: MIA PaCa-2, 72 h
[5] = target: T1, L-lactate dehydrogenase A chain; assay: Inhibition of recombinant human full-length N-terminal His-tagged LDHA (1 to 332 residues) expressed in Escherichia coli at 10 uM using sodium pyruvate as substrate incubated for 10 mins relative to control
[6] = tested on: A549; assay: Antiproliferative activity against human A549 cells assessed as reduction in cell viability at incubated for 72 hrs by MTT assay; type: functional, cell-based; conditions: A549, 72 h
[7] = tested on: MCF7; assay: Antiproliferative activity against human MCF7 cells assessed as reduction in cell viability at 50 uM incubated for 72 hrs by MTT assay relative to control; type: functional; conditions: for inhibition at 50 µM: MCF7, 72 h
[8] = tested on: MIA PaCa-2; assay: Induction of apoptosis in human MIAPaCa2 cells assessed as viable cells at 5 uM incubated for 12 hrs by annexin V and propidium iodide staining based flow cytometry analysis (reference value: 94.85 %); type: functional; conditions: MIA PaCa-2, 12 h, read-out: Activity
[9] = tested on: MIA PaCa-2; assay: Cell cycle arrest in human MIAPaCa2 cells assessed as accumulation at S phase at 5 uM incubated for 24 hrs by propidium iodide staining based flow cytometry (reference value: 12.99%); type: functional
[10] = tested on: MIA PaCa-2; assay: Cell cycle arrest in human MIAPaCa2 cells assessed as accumulation at G1 phase at 5 uM incubated for 24 hrs by propidium iodide staining based flow cytometry (reference value: 56.01%); type: functional
[11] = tested on: MIA PaCa-2; assay: Inhibition of colony formation in human MIAPaCa2 cells at 0.5 uM treated for 3 days and supplemented with fresh medium with out compound every 3 days measured after 15 days by crystal violet staining based assay; type: functional, cell-based
[12] = tested on: MIA PaCa-2; assay: Induction of apoptosis in human MIAPaCa2 cells assessed as early apoptotic cells at 5 uM incubated for 12 hrs by annexin V and propidium iodide staining based flow cytometry analysis (reference value: 0.40 %); type: functional
[13] = tested on: MIA PaCa-2; assay: Cell cycle arrest in human MIAPaCa2 cells assessed as accumulation at G2 phase at 5 uM incubated for 24 hrs by propidium iodide staining based flow cytometry (reference value: 31.00%); type: functional
[14] = tested on: MIA PaCa-2; assay: Induction of apoptosis in human MIAPaCa2 cells assessed as necrotic cells at 5 uM incubated for 12 hrs by annexin V and propidium iodide staining based flow cytometry analysis (reference value: 1.54 %); type: functional
[15] = tested on: MIA PaCa-2; assay: Induction of apoptosis in human MIAPaCa2 cells assessed as late apoptotic cells at 5 uM incubated for 12 hrs by annexin V and propidium iodide staining based flow cytometry analysis (reference value: 3.21 %); type: functional

SMILES | EC50 [1] [µM] | IC50 [4] [µM] | inhibition [5] [%] | IC50 [6] [µM] | inhibition at 50 µM [2] [%] | inhibition at 50 µM [3] [%] | inhibition at 50 µM [7] [%] | other results
O=C(CCC1CCCCC1)N1CCN(c2ncnc3c2nnn3Cc2ccccc2)CC1 | 2.14 | > 50 | > 90 | > 50 | 21.4 | 45.6 | 22.3 | 
COc1cccc2c1C(=O)c1c(O)c3c(c(O)c1C2=O)C[C@@](O)(C(=O)CO)C[C@@H]3O[C@H]1C[C@H](N)[C@H](O)[C@H](C)O1 [DOXORUBICIN] |  |  |  |  |  |  |  | viability at 5 µM [8]: 74.7%; Activity [9]: 5.54%; Activity [10]: 40.09%; inhibition [11]: Active; Activity [12]: 2.26%; Activity [13]: 54.37%; Activity [14]: 7.4%; Activity [15]: 15.66%
Cc1ncn(CC(=O)N2CCC(Oc3cncc(N(C)C)n3)C2)c(=O)c1C (stereo not given) | 2.9 | > 50 | > 90 | > 50 | 25.8 | 47.8 | 50.1 | 
O=C(c1ccco1)N1CCN(Cc2cc(=O)c(OCc3ccc(F)cc3)co2)CC1 | 9.7 | > 50 |  | > 50 |  |  |  | 
O=C(NCC(=O)N1CCCC(Cc2nc(C3CC3)no2)C1)c1ccccc1 (stereo not given) | 3.3 | > 50 | > 90 | > 50 | 12.5 | 25.8 | 17.9 | 
Cc1ccccc1OCC(=O)NCc1nn(C2CCCC2)c2c1COCC2 | 5.7 | > 50 | > 90 | > 50 |  |  |  | inhibition [2]: inactive; inhibition [3]: inactive; inhibition [7]: inactive
O=C(c1ccco1)N1CCN(Cc2cc(=O)c(OCc3ccccc3Cl)co2)CC1 | 12.4 | > 50 |  | > 50 |  |  |  | 
O=C(CC1CSc2nc3c(cnn3-c3ccccc3)c(=O)n21)NCCCn1ccnc1 (stereo not given) | 7.8 | > 50 | > 90 | > 50 | 15.8 | 36.9 | 14.7 | 
O=C(Cn1cnc2ccccc2c1=O)N1CCN(C(=O)c2cc3n(n2)CCCC3)CC1 | 0.89 | > 50 | > 90 | > 50 | 58.7 | 45.6 | 25.7 | 
O=C(c1ccco1)N1CCN(Cc2cc(=O)c(OCc3c(F)cccc3Cl)co2)CC1 | 5.6 | > 50 |  | > 50 |  |  |  | 
COc1cccc2c1OC(C(=O)N1CCC(Cn3ccnc3C(C)C)CC1)C2 (stereo not given) | 7.5 | > 50 | > 90 | > 50 |  |  |  | inhibition [2]: inactive; inhibition [3]: inactive; inhibition [7]: inactive

The next lines start with results.

EC50 [1] [µM] | IC50 [4] [µM] | inhibition [5] [%] | IC50 [6] [µM] | SMILES | inhibition at 50 µM [2] [%] | inhibition at 50 µM [3] [%] | inhibition at 50 µM [7] [%] | other results
3.4 | > 50 | > 90 | > 50 | COc1cccc(N2CCN(C3CCN(C(=O)c4cnn5c4OCCC5)CC3)CC2)c1 | 12.4 | 25.8 | 17.9 | 
1.8 | > 50 | > 90 | > 50 | N#Cc1cccnc1N1CCC(CNC(=O)C(=O)Nc2cccc(C(F)(F)F)c2)CC1 | 56.8 | 45.7 | 38.7 | 
6.4 | > 50 | > 90 | > 50 | Cc1ncn(CC(=O)N2CC(Oc3cc(C)n(C4CC4)c(=O)c3)C2)c(=O)c1C |  | 4.5 | 12.3 | 
4.58 | > 50 | > 90 | > 50 | COc1cc(CNC(=O)c2c(OC)cc(=O)n3c2CCC3)cc(OC)c1OC |  |  |  | inhibition [2]: inactive; inhibition [3]: inactive; inhibition [7]: inactive
4.1 | > 50 | > 90 | > 50 | COc1ccccc1OCC(=O)NC1CCC(Oc2nc(C)cc(C)n2)CC1 (stereo not given) | 25.7 | 5.9 | 9.7 | 
0.34 | > 50 | > 90 | > 50 | Cc1cc(N2CCC(CNS(=O)(=O)c3cccc4cccnc34)CC2)ccn1 | 25.8 | 14.7 |  | 
3.7 | 24.5 |  | 18.9 | O=C(c1ccco1)N1CCN(Cc2cc(=O)c(OCc3cccc(F)c3)co2)CC1 |  |  |  | 
0.27 | 3.8 |  | 5.7 | O=C(c1ccco1)N1CCN(Cc2cc(=O)c(OCc3cccc(Cl)c3)co2)CC1 |  |  |  | 
 | 0.48 |  | 0.36 | O=C1N[C@](c2ccc(N3CCOCC3)cc2)(c2ccsc2)CC(O)=C1Sc1ccccc1Cl |  |  |  | 
0.68 | 12.5 | > 90 | 14.7 | O=C(c1ccco1)N1CCN(Cc2cc(=O)c(OCc3ccccc3)co2)CC1 | 95.6 | 84.7 | 93.4 | 
1.2 | 29.8 | > 90 | 22.7 | CC(=O)c1ccc(NC(=O)COc2cc(C)nc(C3CCC(C)CC3)n2)cc1 (stereo not given) | 75.6 | 45.8 | 85.7 | 
 | 18900 |  | 45800 | NC(=O)C(=O)O [SODIUM OXAMATE] |  |  |  | 
